From US20240043389A1, “COMPOUNDS AND METHODS FOR INHIBITION OF BAX-MEDIATED CELL DEATH” (Albert Einstein College of Medicine, priority 2020, published 2024)
Blank lines part the entries; values can stand above or below the compound they belong to.

Columns and labels:
15N-labeled BAX = biological target: T1, 15N-labeled BAX (Homo sapiens, UniProt Q07812); experiment: 1H-15N HSQC NMR chemical shift perturbation; format: binding
T1 construct: Human full-length (1-192) wild-type BAX (Q07812); made in house; host or cells: E. coli BL21 (DE3) CodonPlus (DE3)-RIPL
Method: The uniformly ^15N-labeled protein samples were prepared by growing the bacteria in the minimal medium, as previously described (Uchime, O., et al. J Biol Chem 291, 89-102, (2016)). Unlabeled and ^15N-labeled protein samples were prepared in 50 mM potassium phosphate, 50 mM NaCl solution at pH 6.0 in 10% D20. All experiments were performed using an independent sample for each experimental measurement as a 400 μL sample in a 5-mm Shigemi; all samples were DMSO matched with 2% d6-DMSO. Correlation ^1H-^15N-HSQC spectra were recorded on ^15N-labeled BAX at 50 μM in the presence and absence of 100 μM of EO. NMR spectra were acquired at 25° C. on a Bruker 600 MHz spectrometer equipped with a cryoprobe, processed using TopSpin and analyzed using NMRView. […] The weighted average chemical shift perturbation (CSP) was calculated as √(L1δ^1H)^2+(L1δ^15N/5)^2)/2 in p.p.m. […] The significance threshold for backbone amide chemical shift changes was calculated based on the average chemical shift across all residues plus 0.5 or 1 s.d. Solvent-accessible surface area was probed by the addition of 10 mM hy-TEMPO (sigma) to 50 μM ^15N-labeled BAX with and without 100 μM EO measured using standard ^1H-^15N-HSQC with an increased recycle delay of 2 sec. PRE was calculated as the ratio of peak intensities of BAX in the presence of hy-TEMPO to BAX without hy-TEMPO (% intensity). […]

BAX [1] = biological target: T2, BAX (Homo sapiens, UniProt Q07812); experiment: Competitive fluorescence polarization binding assay (FITC-BIM-SAHB displacement from BAX)
T2 construct: Human full-length (1-192) wild-type BAX (Q07812); made in house; host or cells: E. coli BL21 (DE3) CodonPlus (DE3)-RIPL
Method: Fluorescence polarization assays (FPA) were performed as previously described (Reyna, D. E., et al. Cancer Cell 32 490-505 (2017)). Direct binding isotherms of BIM-SAHB were measured by incubated FITC-BIM-SAHB (25 nM) with serial dilutions of full-length BAX alone or in the presence of 0.5 or 1 μM EO. Competition binding assays were performed by titrating EO into BAX (150 nM) and FITC-BIM-SAHB (25 nM). Measurements were taken at 10-minute intervals over 60 minutes on a TECAN F200 PRO microplate reader. Reported curves represent a 10-minute time point. KD values and IC50 were determined using GraphPad Prism nonlinear fit four-parameter agonist or antagonist versus response with restraints for 100% and 0% bound calculated by the mP of saturated BAX+FITC-BIM-SAHB and FITC-BIM-SAHB alone.

BAX [2] = biological target: T2, BAX; experiment: Liposomal permeabilization (release) assay; format: biochemical; conditions: compared with EO
Method: (§1) Liposomes were formed by extrusion of the suspension using Avanti Mini-Extruder (cat #610000) with polycarbonate membranes of 0.1 μm pore size (Avanti Polar Lipids). ANTS/DPX encapsulated liposomes were purified from non-encapsulated ANTS/DPX by gel filtration of a 10 mL CL2B-Sepharose (GE Healthcare Life Sciences) gravity flow column. […] Reactions were initiated by the addition of 10 μL of the encapsulated ANTS/DPX liposome stock. ANTS/DPX release was quantified based on the increase in fluorescence intensity that occurs when the ANTS fluorophore is separated from the DPX quencher upon release from the liposomes into solution. Fluorescence (λex=355 nm and λem=520 nm) was measured at 1-minute intervals at room temperature (22-25° C.) indicated using a Tecan Infinite M1000 plate reader. In the case of heat activation, reactions were setup as described in the absence of tBID or BIM, and experiments were recorded at 42° C. The percentage release of ANTS/DPX at any given time point was calculated as percentage release=((F−F0)/(F100−F0))(100), where F0 and F100 are baseline and maximal fluorescence, respectively. Triton X-100 (1%) was used to determine the maximum amount of liposomal release per assay and was set to 100%.

BAX R134E R145E = biological target: T3, BAX R134E R145E (Homo sapiens, UniProt Q07812, R134E/R145E); experiment: Liposomal release assay, BAX R134E R145E mutant; format: biochemical; conditions: 250 nM BAX, 5 nM tBID; read-out: IC50, inhibition of liposomal release
T3 construct: Human full-length (1-192) wild-type BAX (Q07812); made in house; host or cells: E. coli BL21 (DE3) CodonPlus (DE3)-RIPL
Method: as §1

BAX−/−MEFs = experiment: STS-induced caspase 3/7 assay in BAX-/- MEFs; format: cell-based, mouse; conditions: MEFs expressing only BAK, 3 μM STS, 6 hr
From the text: FIGS. 9a, 9b, 9c, 9d, 9e, and 9f are a set of diagrams showing that eltrombopag inhibits BAX translocation and BAX-mediated apoptosis in cells. […] BAX translocation is based on antibody-based detection of BAX and mitochondrial protein TOMM20. Representative confocal micrographs from three independent biological experiments. Scale bar, […]. […] Data represent ±SEM of three independent biological replicates. Two-sided t test, ****P<0.0001; ***P<0.001; **P<0.01; *P<0.05; ns, P>0.05. […] Actin and VDAC are loading controls for cytosolic and mitochondrial fractions, respectively. FIGS. 9d and 9e show a caspase 3/7 assay of BAK−/− mouse embryonic fibroblasts (MEFs) (FIG. 9d) and BAX−/−MEFs (FIG. 9e) in response to 3 μM STS and the presence or absence of various doses of EO for 6 hr. Data represent mean of n=3±SEM and are representative of three independent experiments. Two-sided t-test, **** P<0.0001; ***P<0.001;**P<0.01; *P<0.05; ns, P>0.05. […] Data represent mean of n=3±SEM.

BAX R145E = biological target: T4, BAX R145E (Homo sapiens, UniProt Q07812, R145E); experiment: Liposomal release assay, BAX R145E mutant; format: biochemical; conditions: 250 nM BAX, 5 nM tBID
T4 construct: Human full-length (1-192) wild-type BAX (Q07812); made in house; host or cells: E. coli BL21 (DE3) CodonPlus (DE3)-RIPL
Method: as §1

platelets [3] = experiment: Navitoclax-induced thrombocytopenia, platelet counts; format: in vivo, C57BL/6J mice; conditions: ABT-263 25 mg/kg single dose, oral gavage, within 24 hr
platelets [4] = conditions: platelets isolated from treated patients; cited from earlier work

T2 sequence (Q07812 whole entry): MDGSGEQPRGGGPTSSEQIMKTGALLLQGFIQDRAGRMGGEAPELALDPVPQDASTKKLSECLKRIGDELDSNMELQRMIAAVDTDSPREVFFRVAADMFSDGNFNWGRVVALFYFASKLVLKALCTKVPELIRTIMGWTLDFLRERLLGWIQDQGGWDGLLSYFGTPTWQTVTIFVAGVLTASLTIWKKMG
T1 sequence (Q07812 whole entry): as above
T3 sequence (Q07812 whole entry R134E/R145E): as the sequence (Q07812 whole entry) above, with R134E, R145E counted along it
T4 sequence (Q07812 whole entry R145E): as the sequence (Q07812 whole entry) above, with R145E counted along it

chemical shift perturbations of 15N-labeled BAX (15N-labeled BAX): minimal CSPs
IC50 (BAX [1]; BAX 150 nM, FITC-BIM-SAHB 25 nM, read-out: IC50, competition of FITC-BIM-SAHB by FPA): > 5 µM
inhibition of BAX in liposomal release assays (BAX [2]): significantly diminished inhibition
Compound: COC(=O)c1cccc(-c2cccc(NN=C3C(=O)N(c4ccc(C)c(C)c4)N=C3C)c2O)c1 [EO-Methyl Ester, eltrombopag methyl ester]

IC50 (BAX R134E R145E): > 10 µM
IC50 relative to BAX WT (BAX R145E): more than double that of BAX WT
Compound: CC1=NN(c2ccc(C)c(C)c2)C(=O)/C1=N\Nc1cccc(-c2cccc(C(=O)O)c2)c1O [EO, eltrombopag]
STS-induced apoptosis mediated by caspase 3/7 activity (BAX−/−MEFs): no effect

Compound: CC1(C)CCC(c2ccc(Cl)cc2)=C(CN2CCN(c3ccc(C(=O)NS(=O)(=O)c4ccc(N[C@H](CCN5CCOCC5)CSc5ccccc5)c(S(=O)(=O)C(F)(F)F)c4)cc3)CC2)C1 [navitoclax]
platelet loss (platelets [3]): significant platelet loss

Compound: romiplostim
resistance of patient platelets to ABT-263 (Navitoclax) induced cell death (platelets [4]): not observed

competitive binding to the BAX trigger site (FP) (BAX [1]; FIG. 7a): competitive binding
Compound: COc1c(NN=C2C(=O)N(c3cccc([N+](=O)[O-])c3)N=C2C)cccc1-c1cccc(C(=O)O)c1 [EO-2, 2′-methoxy-3′-(2-(3-methyl-1-(3-nitrophenyl)-5-oxo-1,5-dihydro-4H-pyrazol-4-ylidene)hydrazineyl)-[1,1′-biphenyl]-3-carboxylic acid]
